Laboratory results taken from US20210196607A1 (HESED BIO CO., LTD., priority 2017, published 2021).

Key:
[1] = system: B16F10 mouse melanoma cells; experiment: Measuring amount of melanin; assay type: cell-based
Method: B16F10 mouse melanoma cells were seeded into a 6-well cell culture plate at a density of 1×10^5/well. […] The obtained cells were disrupted and then centrifuged to obtain a cell precipitate, and 1 N NaOH containing 10% DMSO was added thereto. Thereafter, the resulting precipitate was allowed to react at 60° C. for 1 hour, and absorbance at 405 nm was measured.

cells = experiment: Cytotoxicity experiment (MTT experiment); assay type: cell-based
Method: 1-1: Cell Culture HEK 293A and B16F10 cells used, Dulbecco's Modified Eagle's Medium (DMEM) containing 10% fetal bovine serum and 1% penicillin/streptomycin as a nutrient source, and were incubated in an incubator maintained at 37° C. under 5% CO2.
This is an experiment for measuring the number of living cells through conversion of 3-(4,5-dimethyl-thiazol-2-yl)-2,5-diphenyl tetrazolium bromide (MTT) into formazan with a purple color, by reduction in cells. Cells were seeded into a 96-well cell culture plate at a density of 3×10^3. […] Thereafter, the culture medium was removed, and a solvent for dissolving crystallized formazan was added to dissolve the sample, and the absorbance at 570 nm of the dissolved sample was measured.

tyrosinase [2] = molecular target: T1, tyrosinase (Mus musculus, UniProt P11344); experiment: Degree of tyrosinase activity at cellular level; assay type: cell-based; settings: B16F10 cells
T1 construct: The obtained cells were disrupted and then centrifuged to separate a supernatant; endogenous in cells; host or cells: B16F10 mouse melanoma cells, stimulated with melanocyte stimulating hormone
T1 sequence (P11344 19-533): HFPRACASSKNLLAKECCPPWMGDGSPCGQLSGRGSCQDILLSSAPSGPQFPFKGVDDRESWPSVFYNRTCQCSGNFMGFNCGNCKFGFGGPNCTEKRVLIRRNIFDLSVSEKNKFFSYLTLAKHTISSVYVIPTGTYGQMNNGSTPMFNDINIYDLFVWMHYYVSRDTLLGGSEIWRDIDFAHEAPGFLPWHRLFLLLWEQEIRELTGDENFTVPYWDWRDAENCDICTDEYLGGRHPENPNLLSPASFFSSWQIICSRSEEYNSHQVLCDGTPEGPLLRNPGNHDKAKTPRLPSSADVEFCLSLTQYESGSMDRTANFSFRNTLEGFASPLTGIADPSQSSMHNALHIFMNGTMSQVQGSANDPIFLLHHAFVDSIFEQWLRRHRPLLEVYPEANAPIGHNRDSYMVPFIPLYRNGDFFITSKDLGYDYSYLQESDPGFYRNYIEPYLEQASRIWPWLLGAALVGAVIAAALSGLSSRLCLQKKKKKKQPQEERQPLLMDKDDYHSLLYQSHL
Method: B16F10 mouse melanoma cells were seeded into a 6-well cell culture plate at a density of 1×10^5/well. […] The obtained cells were disrupted and then centrifuged to separate a supernatant. The protein concentration of the supernatant was measured, and 50 μg of protein per sample was standardized into a volume of 50 μl and placed on a 96-well plate. Then, 100 μl of 0.1% L-DOPA was added as a reaction substrate to each sample and allowed to react at 37° C. for 1 hour, and then absorbance at 475 nm was measured.

tyrosinase [3] = experiment: Tyrosinase protein and mRNA amount in MSH-treated B16F10 cells; assay type: cell-based, mouse
From the text: Antibodies were purchased from respective manufacturers. Tyrosinase, 14-3-3ζ, LAMIN B (Santa Cruz), MITF (Abcam), phospho-MITF (Sigma), ERK, phospho-ERK (Cell Signaling), ACTIN (MPBIO), and GAPDH (Bethyl) were used.
(§1) Total RNA was extracted from each group of cells using a TRI reagent (Molecular Research Center). Extracted RNA was reverse transcribed using an ImProm™ Reverse Transcription System (Promega), followed by measurement using a StepOnePlus™ Real-Time PCR System (Applied Biosystems).

[4] = system: heat shock protein 70 (HSP70); experiment: Expression of heat shock protein 70 under heat stress; assay type: cell-based, mouse; settings: B16F10 cells
Method: Total protein was extracted from the cells using a THE buffer, and then the amount thereof was measured using a Bradford reagent. In addition, proteins were separated by SDS-PAGE and identified using antibodies, followed by quantitative analysis. Antibodies were purchased from respective manufacturers, and HSP70 (Santa Cruz) and actin (MPBIO) were used.
as §1

[5] = system: estrogen receptor signaling pathway; experiment: mRNA of estrogen receptor target genes; assay type: cell-based; settings: HEK 293A cells (FIG. 5D)
From the text: as §1

[6] = molecular target: T2, ERα ligand-binding domain (Homo sapiens, UniProt P03372); experiment: Estrogen receptor reporter (GAL4 luciferase) experiment; assay type: cell-based
T2 construct: expressed in transfected cells; host or cells: HEK 293A cells
Method: To deliver a DNA plasmid into HEK 293A cells, a microporator (Invitrogen/Neon® Transfection System) was used. At one time, 1 μg of a reporter plasmid was delivered into 1 million cells. The DNA-delivered cells were cultured in a general culture medium. The activities of Renilla and Firefly luciferases were measured using a Dual-Luciferase® Reporter Assay System (Promega). To measure the activity of an estrogen receptor (ER) reporter, a system, in which, when a specific material binds to the ER ligand domain, GAL4 binds to a specific DNA sequence, resulting in expression of the Firefly luciferase, was used, and the Renilla luciferase was delivered together to calibrate DNA transfer efficiency. The activity of the estrogen receptor reporter was determined by dividing a value of the Firefly luciferase by a value of the Renilla luciferase. […] When HEK 293A cells to which reporter DNAs were delivered were treated with 50 μM of the extract, the expression of the luciferases was nearly 3.5 times higher than that of the control (see FIG. 5B).

[7] = 100 nM melanocyte stimulating hormone for 48 hours
[8] = increasing amount of 8-methoxybutin (FIG. 2D)

T2 sequence (P03372 311-547 limits assumed): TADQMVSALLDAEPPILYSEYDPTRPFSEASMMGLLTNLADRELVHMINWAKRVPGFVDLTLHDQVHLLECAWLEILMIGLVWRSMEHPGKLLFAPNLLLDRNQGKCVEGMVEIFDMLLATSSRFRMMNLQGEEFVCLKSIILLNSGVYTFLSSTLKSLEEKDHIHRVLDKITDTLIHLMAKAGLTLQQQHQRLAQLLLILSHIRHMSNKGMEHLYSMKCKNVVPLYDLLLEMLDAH
T2 sequence (P04386 1-147 partner limits assumed): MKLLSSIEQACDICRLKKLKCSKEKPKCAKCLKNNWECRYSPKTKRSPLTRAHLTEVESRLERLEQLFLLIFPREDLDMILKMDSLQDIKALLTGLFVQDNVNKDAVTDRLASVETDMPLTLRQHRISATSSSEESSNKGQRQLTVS

decrease in tyrosinase activity (tyrosinase [2]; [7]): ≥ 110%
amount of mRNA of target genes [5]: increased
expression of the luciferases relative to the control ([6]; HEK 293A cells with reporter DNAs, 50 μM (FIG. 5B)): ~3.5 times
expression of luciferases depending on concentration ([6]; HEK 293A cells, concentration increased from 10 μM (FIG. 5C)): statistically significant increase
Compound: COc1c(O)ccc2c1OC(c1ccc(O)c(O)c1)CC2=O (centres unmarked) [8-methoxybutin, 2-(3,4-dihydroxyphenyl)-7-hydroxy-8-methoxy-2,3-dihydro-4H-1-benzopyran-4-one]
decrease in melanin synthesis amount [1, 7]: ≥ 50%
melanin synthesis with increasing amount of compound [1, 8]: in proportion to the amount of 8-methoxybutin
cell survival rate (cells; 24 hours treatment, high as well as low concentration): about 100%
cytotoxicity (cells; high concentration, 100 μM): cytotoxicity was hardly observed
tyrosinase activity with increasing amount of compound (tyrosinase [2]; [8]): in proportion to the amount of 8-methoxybutin
amount of tyrosinase protein (tyrosinase [3]; B16F10 cells treated with melanocyte stimulating hormone (FIG. 2B)): remarkable decrease
tyrosinase mRNA level (tyrosinase [3]; B16F10 cells treated with melanocyte stimulating hormone (FIG. 2C)): confirmed at an mRNA level
amount of tyrosinase protein with increasing amount of compound (tyrosinase [3]; B16F10 cells, increasing amount of 8-methoxybutin (FIG. 2E)): reduced in proportion to the amount of 8-methoxybutin
amount of heat shock protein 70 mRNA compared to the control ([4]; heat stress (FIG. 3B)): larger amount
amount of heat shock protein 70 (HSP70) compared to a control ([4]; heat-applied condition 42° C. for 1 hour, DMSO control (FIG. 3A)): increased at least three times
